Reference: US12721823B2, “Methods and compositions for treatment of low circulating testosterone conditions” (University of Florida Research Foundation, Inc., priority 2021, dated 2026)

Experiments:
Format in all cases: in vivo, rat
Sprague-Dawley rats [1] = assay: Elevated plus maze (EPM)
Description: (§1) Sixty-four G1 rats (32 control and 32 sevoflurane exposed) and 122 G2 rats, which were not exposed to sevoflurane anesthesia and were subjected to animal facility rearing only, were studied. The G1 rats were sequentially evaluated in the EPM starting on ~P125, PPI of the acoustic startle response on ~P135 and MWM starting ~on P145 (FIG. 1). One half of these animals were sacrificed on ≥P160 to collect trunk blood, brain and testis and ovarian tissues for further analyses. The rest of these animals were physically restrained for 30 min on ≥P160 to measure corticosterone responses, followed by collection of tissue samples (as above) for further analyses. The G2 rats were evaluated in the EPM starting on P60 and PPI of startle on P70 (FIG. 1). One half of these animals were sacrificed on ≥P95 to collect trunk blood and brain tissue samples for further analyses, and the rest of these animals were tested for the corticosterone responses to physical restraint for 30 min on ≥P95 before collecting the trunk blood and brain tissue samples.
The EPM studies were performed using an EPM apparatus and BIO-EPM 3C video tracking software (EB Instruments, Pinellas Park, FL) during the light phase of the dark-light cycle as previously described by our laboratory.^5-7 If a fall occurred, the animal was removed from the study (one G1 male rat was removed from the study for this reason).

Sprague-Dawley rats [2] = assay: Morris water maze (MWM) test
Description: as §1
The MWM tests were run using a MWM apparatus and data were analyzed using a computer-based video tracking system (Water 2020; HVS Image) as previously described. 5

Sprague-Dawley rats [3] = assay: Serum FSH, LH, testosterone (Tn), estradiol (E2) by ELISA and testis weight
Description: Sixty-four G1 rats (32 control and 32 sevoflurane exposed) and 122 G2 rats, which were not exposed to sevoflurane anesthesia and were subjected to animal facility rearing only, were studied. The G1 rats were sequentially evaluated in the EPM starting on ~P125, PPI of the acoustic startle response on ~P135 and MWM starting ~on P145 (FIG. 1). One half of these animals were sacrificed on ≥P160 to collect trunk blood, brain and testis and ovarian tissues for further analyses. The rest of these animals were physically restrained for 30 min on ≥P160 to measure corticosterone responses, followed by collection of tissue samples (as above) for further analyses. The G2 rats were evaluated in the EPM starting on P60 and PPI of startle on P70 (FIG. 1). One half of these animals were sacrificed on ≥P95 to collect trunk blood and brain tissue samples for further analyses, and the rest of these animals were tested for the corticosterone responses to physical restraint for 30 min on ≥P95 before collecting the trunk blood and brain tissue samples. After decapitation, the trunk blood samples were collected and centrifuged at 4° C., 1000 g for 15 min, and then kept at -80° C. for hormone assays. The brain was removed from the skull onto ice pads. The hypothalamus was isolated by making an anterior cut at the level of the optic chiasm, a posterior coronal section anterior to the mammillary bodies, two sagittal cuts parallel to the lateral ventricles and a dorsal horizontal cut at the level of the anterior commissure, as described elsewhere.^19 The hippocampus was isolated from the respective blocks. All tissue samples were placed in vials filled with RNAlater solution (Invitrogen, Carlsbad, CA) and then stored at -80° C. Testis tissue was removed and washed with 0.9% saline before weighing. Sperm were isolated from the caudal epididymis of adult males into PBS with 1% BSA at 37° C. using a swim-up assay. After settling for 30 min, sperm-containing supernatant was centrifuged for 5 min at 4000 rpm. Sperm pellets were stored at -80° C. After separation from the adipose tissues, ovaries were stored at -80° C. Hormone analyses in serum samples isolated from G1 and G2 rats were performed using commercially available kits according to the manufacturer's instructions. Serum concentrations of FSH (CSB-E06869r) and LH (CSB-E12654r) were quantified using ELISA kits (CUSABIO TECHNOLOGY LLC, Houston, TX, USA). Serum Tn and E2 concentrations were measured using ELISA kits (582701, Cayman Chemical Company, Ann Arbor, MI, USA and E[…]-100, Calbiotech, Spring Valley, CA, USA, respectively).

Kcc2 gene promoter = assay: Bisulfite sequencing of CpG sites in the Kcc2 gene promoter; settings: for DNA methylation in the Kcc2 gene promoter: vs con-M*con-F; for methylation of CpG sites in the Kcc2 gene promoter: vs control
Description: Genomic DNA was extracted from the sperm pellet and ovaries of adult G1 rats and from hippocampal and hypothalamic tissues of G2 rats using the DNeasy Blood and Tissue kit (Qiagen, Hilden, Germany). The sodium bisulfite conversion was performed with EZ DNA Methylation kits (Zymo Research, Irvine, CA) following the manufacturer's instructions. The primers (Kcc2: forward: […] (SEQ ID NO: 1); reverse: […] (SEQ ID NO: 2) were designed for the bisulfite-converted DNA sequences, using previously published sequences. 5 PCR amplification was performed with HotStar Taq (Qiagen, Hilden, Germany). Amplicons were cloned into pCR4-TOPO vector with the TOPO TA cloning kit for sequencing (Life Technologies, Carlsbad, CA). Miniprep was performed on each positive clone using ZR Plasmid Miniprep kit (Zymo Research, Irvine, CA). Sanger sequencing was done by Genewiz (South Plainfield, NJ, USA) using M13R primers. The DNA methylation status of all CpG sites was analyzed using Benchling Molecular Biology 2.0 Software (Benchling, San Francisco, CA). The bisulfite sequencing analysis of the Kcc2 DNA was performed only in G2 male progeny of con-M*con-F and sevo-M*sevo-F matings.

[4] = G1 male rats, more than two months after exposure, vs control
[5] = G2 females, all groups of parental exposure
[6] = G2 male offspring of both exposed parents
[7] = G2 males, parental exposure to sevoflurane

With `FCOC(C(F)(F)F)C(F)(F)F` [sevoflurane, 1,1,1,3,3,3-hexafluoro-2-(fluoromethoxy)propane] as the compound, how does the “EPM parameters (time in open arms, number of crossings, distance traveled)” value (Sprague-Dawley rats [1]; G1 female rats, vs control) read?
The value was “no significant between-subjects effect”.

And the “distance traveled, EPM” value (Sprague-Dawley rats [1]; [4])?
The value was “did not differ”.

And the “number of crossings, EPM” value (Sprague-Dawley rats [1]; [4])?
The value was “did not differ”.

What about the “time spent in open arms, EPM” value (Sprague-Dawley rats [1]; [4]) of the same compound?
Its value is “spent less time in open arms”.

What about the “distances traveled, EPM” value (Sprague-Dawley rats [1]; [5]) of the same compound?
Its value is “similar”.

And the “number of crossings, EPM” value (Sprague-Dawley rats [1]; [5])?
Its value is “similar”.

What about the “time spent in open arms, EPM” value (Sprague-Dawley rats [1]; [5]) of the same compound?
Its value is “similar”.

What about the “distance traveled, EPM” value (Sprague-Dawley rats [1]; [6]) of the same compound?
Its value is “shorter distances”.

And the “number of crossings, EPM” value (Sprague-Dawley rats [1]; [6])?
The value was “fewer crossings”.

What about the “time spent in open arms, EPM” value (Sprague-Dawley rats [1]; G2 male progeny of exposed fathers and exposed mothers, vs offspring of control parents) of the same compound?
Its value is “spent less time in open arms”.

And the “time spent in open arms, EPM” value (Sprague-Dawley rats [1]; G2 male progeny of sevoflurane exposed fathers and unexposed mothers, vs offspring of control parents)?
The value was “spent less time in open arms”.

And the “time spent in open arms, EPM” value (Sprague-Dawley rats [1]; G2 male progeny of unexposed fathers and exposed mothers, vs offspring of control parents)?
The value was “spent less time in open arms”.

And the MWM tests (Sprague-Dawley rats [2]; G1 female rats)?
Its MWM tests is “no significant group effects”.

What about the MWM escape latencies (Sprague-Dawley rats [2]; G1 male rats, 5-day training period) of the same compound?
Its MWM escape latencies is “no significant between-subjects effect”.

And the “crossings over the escape platform location, MWM” value (Sprague-Dawley rats [2]; G1 male rats, probe test)?
Its value is “fewer crossings”.

What about the “time in the target quadrant of the MWM” value (Sprague-Dawley rats [2]; G1 male rats, probe test) of the same compound?
The value was “significantly less time”.

What about the “serum levels of E2 (estradiol)” value (Sprague-Dawley rats [3]; G1 female rats, vs control) of the same compound?
Its value is “not different”.

What about the “serum levels of FSH” value (Sprague-Dawley rats [3]; G1 female rats, vs control) of the same compound?
Its value is “no significant treatment effects”.

And the “serum levels of LH” value (Sprague-Dawley rats [3]; G1 female rats, vs control)?
Its value is “no significant treatment effects”.

What about the “serum levels of Tn (testosterone)” value (Sprague-Dawley rats [3]; G1 female rats, vs control) of the same compound?
Its value is “not different”.

What about the “serum levels of Tn (testosterone)” value (Sprague-Dawley rats [3]; G1 male rats, more than 3 months after sevoflurane exposure, vs control) of the same compound?
The value was “significantly increased”.

And the “serum levels of FSH” value (Sprague-Dawley rats [3]; G1 male rats, vs control)?
Its value is “not different”.

And the “serum levels of LH” value (Sprague-Dawley rats [3]; G1 male rats, vs control)?
The value was “increased”.

What about the testis weight (Sprague-Dawley rats [3]; G1 male rats, vs control) of the same compound?
The testis weight was “significantly reduced”.

And the “serum levels of Tn” value (Sprague-Dawley rats [3]; [7])?
Its value is “no significant treatment effects”.

What about the testis weight (Sprague-Dawley rats [3]; [7]) of the same compound?
Its testis weight is “no significant treatment effects”.

And the “DNA methylation in the Kcc2 gene promoter” value (“DNA methylation” for short) (Kcc2 gene promoter; hippocampus of G2 male progeny of both exposed parents, CpG site 1)?
The value was “increased DNA methylation”.

What about the “DNA methylation” value (Kcc2 gene promoter; hippocampus of G2 male progeny of both exposed parents, CpG site 2) of the same compound?
Its value is “increased DNA methylation”.

And the “DNA methylation” value (Kcc2 gene promoter; hippocampus of G2 male progeny of both exposed parents, CpG site 3)?
The value was “increased DNA methylation”.

And the “DNA methylation” value (Kcc2 gene promoter; hypothalamus of G2 male progeny of both exposed parents, CpG site 1)?
The value was “increased DNA methylation”.

And the “DNA methylation” value (Kcc2 gene promoter; hypothalamus of G2 male progeny of both exposed parents, CpG site 2)?
The value was “increased DNA methylation”.

What about the “DNA methylation” value (Kcc2 gene promoter; hypothalamus of G2 male progeny of both exposed parents, CpG site 3) of the same compound?
The value was “increased DNA methylation”.

What about the “methylation of CpG sites in the Kcc2 gene promoter” value (shortened to “methylation of CpG sites”) (Kcc2 gene promoter; ovarian tissue of G1 female rats, CpG site 1) of the same compound?
Its value is “increased methylation”.

And the “methylation of CpG sites” value (Kcc2 gene promoter; ovarian tissue of G1 female rats, CpG site 2)?
Its value is “increased methylation”.

What about the “methylation of CpG sites” value (Kcc2 gene promoter; sperm of G1 male rats, CpG site 1) of the same compound?
Its value is “increased methylation”.

And the “methylation of CpG sites” value (Kcc2 gene promoter; sperm of G1 male rats, CpG site 2)?
The value was “increased methylation”.
